Measurements from US20250221435A1, “Food Protein-Derived Peptides as Bitter Taste Blockers” (University of Manitoba, priority 2018, published 2025).
Values joined by “and” are separate entries in the source; they are usually repeats but may differ in a detail not shown here. Identical values can stand only once. “Also recorded” adds a separate entry of the source. Like-named read-outs stand apart in the source and are kept apart here.

Key:
[1] = biological target: T1, T2R4 (Homo sapiens, UniProt Q9NYW5); assay: Calcium mobilization in T2R4-expressing HEK 293T cell system; assay type: cell-based; details: for blocking of quinine-dependent calcium release: 1 mM quinine plus 5 mg/mL fraction or 1 mM synthesized peptide
T1 construct: expressed in transfected cells
T1 sequence (Q9NYW5 1-299): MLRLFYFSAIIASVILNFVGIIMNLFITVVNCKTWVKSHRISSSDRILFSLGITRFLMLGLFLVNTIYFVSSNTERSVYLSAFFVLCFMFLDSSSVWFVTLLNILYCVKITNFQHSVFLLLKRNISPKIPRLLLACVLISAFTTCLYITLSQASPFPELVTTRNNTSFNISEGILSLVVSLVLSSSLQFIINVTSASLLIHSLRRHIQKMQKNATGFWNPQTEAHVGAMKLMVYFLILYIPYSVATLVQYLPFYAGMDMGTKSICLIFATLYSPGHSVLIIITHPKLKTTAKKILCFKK
Procedure: Determination of cellular calcium mobilization. Determination of the potential bitter taste-activating or blocking activity of BPH was carried out by measuring intracellular Ca^2+ mobilization using Fluo-4 NW calcium assay kit as previously described.^3 Stable transfected HEK293 cells expressing T2R4 and G-alpha 16/44 or HEK293T cells expressing only G-alpha 16/44 were used as experimental and negative control group, respectively. Around 1×10^5 cells/well plated in the 96-well BD-falcon biolux plate and then incubated at 37° C. in a CO2 incubator for 16 h. After incubation, the culture medium was substituted (for 40 min at 37° C. in the CO2 incubator followed by 30 min incubation at room temperature) with Fluo-4 NW dye solution, which contained lyophilized dye in 10 mL of assay buffer (1× Hanks' balanced salt solution, 20 mM HEPES) and 100 μL 2.5 mM probenecid added to prevent dye leakage from cytosol. Calcium mobilization was measured in terms of relative fluorescence units (RFUs) using a Flexstation-3 microplate reader (Molecular Devices, CA, USA) at 525 nm, following 494 nm excitation. […] The basal intracellular calcium levels were measured for the first 20 s followed by addition of appropriate concentration of ligands for another 120 s. To get the absolute RFUs, the basal RFU before adding the ligand, which was labeled minimum value (Min) was deducted from the maximum RFU (Max) obtained after stimulating with the ligand (absolute RFUs=Max−Min). […] Data were collected from two independent experiments, each done in triplicate.

[2] = biological target: T2, T2R14 (Homo sapiens, UniProt Q9NYV8); assay: Peptides and agonist competition calcium mobilization assays on T2R14; assay type: cell-based; details: for IC50: IC50 for T2R14 activated by diphenhydramine, diphenhydramine 0.5 mM, peptide 0.015 mM-1 mM, HEK293T cells stably expressing T2R14; for blocking of diphenhydramine-dependent T2R14 activation: competition calcium mobilization assay
T2 construct: expressed in transfected cells
T2 sequence (Q9NYV8 1-317): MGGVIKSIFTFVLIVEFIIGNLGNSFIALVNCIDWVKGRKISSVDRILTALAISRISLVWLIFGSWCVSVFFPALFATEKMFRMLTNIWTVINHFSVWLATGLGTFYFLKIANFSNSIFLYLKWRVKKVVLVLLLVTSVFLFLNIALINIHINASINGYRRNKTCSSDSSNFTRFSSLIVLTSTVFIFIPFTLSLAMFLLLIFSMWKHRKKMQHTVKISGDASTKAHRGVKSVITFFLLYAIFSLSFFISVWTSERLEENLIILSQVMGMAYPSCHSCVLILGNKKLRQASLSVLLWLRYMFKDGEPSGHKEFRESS
Procedure: FIG. 9. Peptides and agonist competition calcium mobilization assays on T2R14. HEK293T cells stably expressing T2R14 were treated with the agonist diphenhydramine (0.5 mM) and with increasing concentrations of Peptide 4 (ETSARHL) and Peptide 5 (AGDDAPRAVF) ranging from 0.015 mM-1 mM. Changes in intracellular calcium were measured (ΔRFUs), and IC50 values were calculated using GraphPad Prism 4.0. […] Data were collected from a minimum of two independent experiments carried out in triplicate.
To generalize the applicability of these peptides in blocking other T2Rs, we choose T2R14 as our next target.
Determination of cellular calcium mobilization. Determination of the potential bitter taste-activating or blocking activity of BPH was carried out by measuring intracellular Ca^2+ mobilization using Fluo-4 NW calcium assay kit as previously described.^3 Stable transfected HEK293 cells expressing T2R4 and G-alpha 16/44 or HEK293T cells expressing only G-alpha 16/44 were used as experimental and negative control group, respectively. Around 1×10^5 cells/well plated in the 96-well BD-falcon biolux plate and then incubated at 37° C. in a CO2 incubator for 16 h. After incubation, the culture medium was substituted (for 40 min at 37° C. in the CO2 incubator followed by 30 min incubation at room temperature) with Fluo-4 NW dye solution, which contained lyophilized dye in 10 mL of assay buffer (1× Hanks' balanced salt solution, 20 mM HEPES) and 100 μL 2.5 mM probenecid added to prevent dye leakage from cytosol. Calcium mobilization was measured in terms of relative fluorescence units (RFUs) using a Flexstation-3 microplate reader (Molecular Devices, CA, USA) at 525 nm, following 494 nm excitation. Based on the e-tongue data, BPH at 5 mg/mL, BCML at 59 nM and agonist quinine at 1 mM were used individually or in combination with peptides to determine activation of T2R4. BPH or BCML was then mixed with quinine (1 mM final concentration) to obtain 5 mg/mL or 59 nM, respectively and used to determine inactivation of T2R4. The basal intracellular calcium levels were measured for the first 20 s followed by addition of appropriate concentration of ligands for another 120 s. To get the absolute RFUs, the basal RFU before adding the ligand, which was labeled minimum value (Min) was deducted from the maximum RFU (Max) obtained after stimulating with the ligand (absolute RFUs=Max−Min). Next, the signals from the negative control group cells were deducted from the observed signal of experimental group cells to give ΔRFUs. Data were collected from two independent experiments, each done in triplicate. PRISM software version 4.03 (GraphPad Software, San Diego) was used for data analysis.

[3] = Estimation of bitter scores by electronic-tongue (e-tongue); details: 1 mM quinine mixed with 5 mg/mL hydrolysate or 59 nM BCML
Procedure: Estimation of bitter scores by electronic-tongue (e-tongue). Each BPH was dissolved in distilled water to give 0.5, 1.0, 2.5, 5.0, and 10.0 mg/mL concentrations followed by filtration first through a 0.45 μm filter disc and then a 0.2 μm filter. Bitter scores of filtered BPH solutions (20 mL) were evaluated using the Astree II E-tongue system (Alpha M.O.S., Toulouse, France). This system is a completely automated taste analyzer equipped with seven sensors, BD, EB, JA, JG, KA, OA, and JE, based on the ChemFET technology (Chemical modified Field Effect Transistor) to analyze liquid samples. Firstly, 0.01 M HCl was used to condition and calibrate sensors and the reference electrode repeatedly until stable signals were obtained for all seven sensors with minimal or no noise and drift. […] Thereafter, the PLS bitterness standard model was constructed using several bitter taste compounds with known bitter taste scores determined from human panelists, including 0.24 mM and 2.36 mM caffeine, 0.03 mM and 0.12 mM quinine, 0.44 mM and 0.88 mM prednisolone, as well as 3.31 mM and 19.85 mM paracetamol. […] The 5 mg/ml sample was determined as the maximum strength useful to evaluate BPH bitterness intensity and this concentration was subsequently used to obtain bitter scores. […]

[4] = biological target: T1, T2R4; details: known T2R4 bitter taste blocker, positive control; read-out: IC50 for quinine of known T2R4 bitter taste blocker; cited from earlier work
[5] = 10 mM quinine solution; cited from earlier work

## CC(C)[C@H](NC(=O)[C@H](C)NC(=O)[C@H](CCCNC(=N)N)NC(=O)[C@@H]1CCCN1C(=O)[C@H](C)NC(=O)[C@H](CC(=O)O)NC(=O)[C@H](CC(=O)O)NC(=O)CNC(=O)[C@H](C)N)C(=O)N[C@@H](Cc1ccccc1)C(=O)O [AGDDAPRAVF]
[1]
  IC50: 85 µM
[1]; T2R4-expressing HEK 293T cells
  blocking of quinine-dependent calcium release: less calcium mobilization; also recorded: most effective blocker; also recorded: suppressed quinine-dependent calcium release
[2]
  IC50: ~100 µM and 118 µM
  blocking of diphenhydramine-dependent T2R14 activation: effective in blocking

## NCCCC[C@@H](C(=O)O)N(CC(=O)O)CC(=O)O [BCML, Nα,Nα-bis(carboxymethyl)-I-lysine]
[3]
  suppression of quinine bitterness intensity (e-tongue): most decrease
[4]
  IC50: 0.059 µM

## CC(C)C[C@H](NC(=O)[C@H](Cc1c[nH]cn1)NC(=O)[C@H](CCCNC(=N)N)NC(=O)[C@H](C)NC(=O)[C@H](CO)NC(=O)[C@@H](NC(=O)[C@@H](N)CCC(=O)O)[C@@H](C)O)C(=O)O [ETSARHL]
[1]; T2R4-expressing HEK 293T cells
  blocking of quinine-dependent calcium release: less calcium mobilization; also recorded: suppressed quinine-dependent calcium release; also recorded: most effective
[2]
  IC50: ~100 µM and 121 µM
  blocking of diphenhydramine-dependent T2R14 activation: effective in blocking

## C=C[C@H]1C[N@@]2CC[C@H]1C[C@H]2[C@H](O)c1ccnc2ccc(OC)cc12 [Quinine, reference compound]
[1]; T2R4-expressing HEK 293T cells, hydrolysates 5 mg/mL, quinine 1 mM, peptides 1 mM
  calcium mobilization (ΔRFU), sample alone: highest activity

## Nc1ncnc2c1ncn2[C@H]1C[C@H](O)[C@@H](COP(=O)(O)OP(=O)(O)OP(=O)(O)O)O1 [dATP, 2-deoxyadenosine triphosphate]
[5]
  reduction in bitterness of quinine solution: 60%

## AAMY: peptide AAMY identified from CHYMOTRYPSIN hydrolysate fraction CH-F4-5, chemically synthesized (synthesized bitter taste blocker)
[1]; T2R4-expressing HEK 293T cells
  blocking of quinine-dependent calcium release: less calcium mobilization; also recorded: suppressed quinine-dependent calcium release

## AAYM: peptide AAYM identified from CHYMOTRYPSIN hydrolysate fraction CH-F4-5, chemically synthesized (synthesized bitter taste blocker)
[1]; T2R4-expressing HEK 293T cells
  blocking of quinine-dependent calcium release: suppressed quinine-dependent calcium release

## cytosine monophosphate [CMP]
[5]
  reduction in bitterness of quinine solution: 40%
